Converted amounts (≈) assume the structure as drawn.
Tests used:
Assay type in all cases: functional
Streptococcus pneumoniae [1] = test: Antimicrobial activity against penicillin-susceptible Streptococcus pneumoniae clinical isolates assessed as percent susceptible isolates by broth microdilution method
Streptococcus pneumoniae [2] = test: Antimicrobial activity against penicillin-intermediate Streptococcus pneumoniae clinical isolates by broth microdilution method
Streptococcus pneumoniae [3] = test: Antimicrobial activity against penicillin-resistant Streptococcus pneumoniae clinical isolates assessed as percent susceptible isolates by broth microdilution method
Streptococcus pneumoniae [4] = test: Antimicrobial activity against penicillin-resistant Streptococcus pneumoniae clinical isolates assessed as resistant isolates by broth microdilution method
Streptococcus pneumoniae [5] = test: Antimicrobial activity against Streptococcus pneumoniae clinical isolates assessed as percent susceptible isolates by broth microdilution method
Streptococcus pneumoniae [6] = test: Antimicrobial activity against penicillin-susceptible Streptococcus pneumoniae clinical isolates by broth microdilution method
Streptococcus pneumoniae [7] = test: Antimicrobial activity against penicillin-resistant Streptococcus pneumoniae clinical isolates by broth microdilution method
Streptococcus pneumoniae [8] = test: Antimicrobial activity against penicillin-susceptible Streptococcus pneumoniae clinical isolates assessed as resistant isolates by broth microdilution method
Streptococcus pneumoniae [9] = test: Antimicrobial activity against penicillin-intermediate Streptococcus pneumoniae clinical isolates assessed as resistant isolates by broth microdilution method
Streptococcus pneumoniae [10] = test: Antimicrobial activity against Streptococcus pneumoniae clinical isolates assessed as resistant isolates by broth microdilution method
Streptococcus pneumoniae [11] = test: Antimicrobial activity against Streptococcus pneumoniae clinical isolates by broth microdilution method
Streptococcus pneumoniae [12] = test: Antimicrobial activity against penicillin-intermediate Streptococcus pneumoniae clinical isolates assessed as percent susceptible isolates by broth microdilution method
Enterococcus faecium [13] = test: Antimicrobial activity against vancomycin-susceptible Enterococcus faecium clinical isolates assessed as resistant isolates by broth microdilution method
Enterococcus faecium [14] = test: Antimicrobial activity against vancomycin-nonsusceptible Enterococcus faecium clinical isolates by broth microdilution method
Enterococcus faecium [15] = test: Antimicrobial activity against Enterococcus faecium expressing VanA gene clinical isolates assessed as percent susceptible isolates by broth microdilution method
Enterococcus faecium [16] = test: Antimicrobial activity against Enterococcus faecium clinical isolates by broth microdilution method
Enterococcus faecalis [17] = test: Antimicrobial activity against Enterococcus faecalis clinical isolates assessed as resistant isolates by broth microdilution method
Enterococcus faecium [18] = test: Antimicrobial activity against Enterococcus faecium clinical isolates assessed as resistant isolates by broth microdilution method
Enterococcus faecium [19] = test: Antimicrobial activity against vancomycin-susceptible Enterococcus faecium clinical isolates by broth microdilution method
Enterococcus faecalis [20] = test: Antimicrobial activity against Enterococcus faecalis expressing VanA gene clinical isolates assessed as resistant isolates by broth microdilution method
Enterococcus faecalis [21] = test: Antimicrobial activity against vancomycin-susceptible Enterococcus faecalis clinical isolates assessed as resistant isolates by broth microdilution method
Enterococcus faecium [22] = test: Antimicrobial activity against vancomycin-nonsusceptible Enterococcus faecium clinical isolates assessed as percent susceptible isolates by broth microdilution method
Enterococcus faecium [23] = test: Antimicrobial activity against Enterococcus faecium expressing VanA gene clinical isolates by broth microdilution method
Enterococcus faecium [24] = test: Antimicrobial activity against Enterococcus faecium expressing VanB gene clinical isolates assessed as percent susceptible isolates by broth microdilution method
Enterococcus faecalis [25] = test: Antimicrobial activity against vancomycin-nonsusceptible Enterococcus faecalis clinical isolates assessed as resistant isolates by broth microdilution method
Enterococcus faecalis [26] = test: Antimicrobial activity against Enterococcus faecalis expressing VanA gene clinical isolates assessed as percent susceptible isolates by broth microdilution method
Enterococcus faecalis [27] = test: Antimicrobial activity against vancomycin-nonsusceptible Enterococcus faecalis clinical isolates by broth microdilution method
Enterococcus faecalis [28] = test: Antimicrobial activity against vancomycin-nonsusceptible Enterococcus faecalis clinical isolates assessed as percent susceptible isolates by broth microdilution method
Enterococcus faecalis [29] = test: Antimicrobial activity against Enterococcus faecalis clinical isolates assessed as percent susceptible isolates by broth microdilution method
Enterococcus faecium [30] = test: Antimicrobial activity against Enterococcus faecium clinical isolates assessed as percent susceptible isolates by broth microdilution method
Enterococcus faecalis [31] = test: Antimicrobial activity against Enterococcus faecalis expressing VanA gene clinical isolates by broth microdilution method
Enterococcus faecalis [32] = test: Antimicrobial activity against Enterococcus faecalis expressing VanB gene clinical isolates by broth microdilution method
Enterococcus faecalis [33] = test: Antimicrobial activity against vancomycin-susceptible Enterococcus faecalis clinical isolates assessed as percent susceptible isolates by broth microdilution method
Enterococcus faecium [34] = test: Antimicrobial activity against Enterococcus faecium expressing VanB gene clinical isolates assessed as resistant isolates by broth microdilution method
Enterococcus faecium [35] = test: Antimicrobial activity against Enterococcus faecium expressing VanA gene clinical isolates assessed as resistant isolates by broth microdilution method
Enterococcus faecium [36] = test: Antimicrobial activity against vancomycin-nonsusceptible Enterococcus faecium clinical isolates assessed as resistant isolates by broth microdilution method
Enterococcus faecium [37] = test: Antimicrobial activity against vancomycin-susceptible Enterococcus faecium clinical isolates assessed as percent susceptible isolates by broth microdilution method
Enterococcus faecalis [38] = test: Antimicrobial activity against Enterococcus faecalis clinical isolates by broth microdilution method
Enterococcus faecalis [39] = test: Antimicrobial activity against vancomycin-susceptible Enterococcus faecalis clinical isolates by broth microdilution method
Enterococcus faecalis [40] = test: Antimicrobial activity against Enterococcus faecalis expressing VanB gene clinical isolates assessed as percent susceptible isolates by broth microdilution method
Enterococcus faecium [41] = test: Antimicrobial activity against Enterococcus faecium expressing VanB gene clinical isolates by broth microdilution method
Enterococcus faecalis [42] = test: Antimicrobial activity against Enterococcus faecalis expressing VanB gene clinical isolates assessed as resistant isolates by broth microdilution method
Staphylococcus aureus [43] = test: Antimicrobial activity against oxacillin-susceptible Staphylococcus aureus clinical isolates by broth microdilution method
[44] = tested on: Staphylococcus haemolyticus; test: Antimicrobial activity against Staphylococcus haemolyticus clinical isolates by broth microdilution method
[45] = tested on: Staphylococcus haemolyticus; test: Antimicrobial activity against oxacillin-resistant Staphylococcus haemolyticus clinical isolates by broth microdilution method
Staphylococcus aureus [46] = test: Antimicrobial activity against oxacillin-susceptible Staphylococcus aureus clinical isolates assessed as percent susceptible isolates by broth microdilution method
Staphylococcus aureus [47] = test: Antimicrobial activity against oxacillin-resistant Staphylococcus aureus clinical isolates by broth microdilution method
[48] = tested on: Staphylococcus haemolyticus; test: Antimicrobial activity against oxacillin-susceptible Staphylococcus haemolyticus clinical isolates by broth microdilution method
[49] = tested on: Staphylococcus epidermidis; test: Antimicrobial activity against Staphylococcus epidermidis clinical isolates by broth microdilution method
[50] = tested on: Staphylococcus epidermidis; test: Antimicrobial activity against oxacillin-susceptible Staphylococcus epidermidis clinical isolates by broth microdilution method
[51] = tested on: Staphylococcus epidermidis; test: Antimicrobial activity against oxacillin-susceptible Staphylococcus epidermidis clinical isolates assessed as percent susceptible isolates by broth microdilution method
[52] = tested on: Staphylococcus haemolyticus; test: Antimicrobial activity against oxacillin-resistant Staphylococcus haemolyticus clinical isolates assessed as percent susceptible isolates by broth microdilution method
Staphylococcus aureus [53] = test: Antimicrobial activity against Staphylococcus aureus clinical isolates by broth microdilution method
[54] = tested on: Staphylococcus haemolyticus; test: Antimicrobial activity against Staphylococcus haemolyticus clinical isolates assessed as percent susceptible isolates by broth microdilution method
[55] = tested on: Staphylococcus epidermidis; test: Antimicrobial activity against Staphylococcus epidermidis clinical isolates assessed as percent susceptible isolates by broth microdilution method
[56] = tested on: Staphylococcus haemolyticus; test: Antimicrobial activity against oxacillin-susceptible Staphylococcus haemolyticus clinical isolates assessed as percent susceptible isolates by broth microdilution method
[57] = tested on: Staphylococcus epidermidis; test: Antimicrobial activity against oxacillin-resistant Staphylococcus epidermidis clinical isolates by broth microdilution method
Staphylococcus aureus [58] = test: Antimicrobial activity against Staphylococcus aureus clinical isolates assessed as percent susceptible isolates by broth microdilution method

## CO/N=C(\C(=O)N[C@@H]1C(=O)N2C(C(=O)O)=C(CSc3nc(=O)c(O)nn3C)CS[C@H]12)c1csc(N)n1 [CEFTRIAXONE]
Streptococcus pneumoniae [1]
  Activity: 100%
Streptococcus pneumoniae [2]
  MIC90: 0.5 µg/mL (≈ 0.902 µM)
Streptococcus pneumoniae [3]
  Activity: 80.4%
Streptococcus pneumoniae [4]
  Percent of isolates resistant: 7.4%
Streptococcus pneumoniae [5]
  Activity: 97%
Streptococcus pneumoniae [6]
  MIC90: 0.03 µg/mL (≈ 0.0541 µM)
Streptococcus pneumoniae [7]
  MIC90: 2 µg/mL (≈ 3.61 µM)
Streptococcus pneumoniae [8]
  Percent of isolates resistant: 0%
Streptococcus pneumoniae [9]
  Percent of isolates resistant: 0.5%
Streptococcus pneumoniae [10]
  Resistant isolates: 1.2%
Streptococcus pneumoniae [11]
  MIC90: 1 µg/mL (≈ 1.8 µM)
Streptococcus pneumoniae [12]
  Activity: 99.5%

## GENTAMICIN
Enterococcus faecium [13]
  Activity: 25.1%
Enterococcus faecium [14]
  MIC: > 500 µg/mL
  MIC90: > 500 µg/mL
Enterococcus faecium [15]
  Activity: 62.9%
Enterococcus faecium [16]
  MIC: > 500 µg/mL
  MIC90: > 500 µg/mL
Enterococcus faecalis [17]
  Activity: 34.6%
Enterococcus faecium [18]
  Activity: 31.7%
Enterococcus faecium [19]
  MIC: > 500 µg/mL
  MIC90: > 500 µg/mL
Enterococcus faecalis [20]
  Activity: 83.1%
Enterococcus faecalis [21]
  Activity: 32.2%
Enterococcus faecium [22]
  Activity: 63.3%
Enterococcus faecium [23]
  MIC: > 500 µg/mL
  MIC90: > 500 µg/mL
Enterococcus faecium [24]
  Activity: 75.9%
Enterococcus faecalis [25]
  Activity: 80.5%
Enterococcus faecalis [26]
  Activity: 16.9%
Enterococcus faecalis [27]
  MIC: > 500 µg/mL
  MIC90: > 500 µg/mL
Enterococcus faecalis [28]
  Activity: 19.5%
Enterococcus faecalis [29]
  Activity: 65.4%
Enterococcus faecium [30]
  Activity: 68.3%
Enterococcus faecalis [31]
  MIC: > 500 µg/mL
  MIC90: > 500 µg/mL
Enterococcus faecalis [32]
  MIC: > 500 µg/mL
  MIC90: > 500 µg/mL
Enterococcus faecalis [33]
  Activity: 67.8%
Enterococcus faecium [34]
  Activity: 24.1%
Enterococcus faecium [35]
  Activity: 37.1%
Enterococcus faecium [36]
  Activity: 36.7%
Enterococcus faecium [37]
  Activity: 74.9%
Enterococcus faecalis [38]
  MIC: > 500 µg/mL
  MIC90: > 500 µg/mL
Enterococcus faecalis [39]
  MIC: > 500 µg/mL
  MIC90: > 500 µg/mL
Enterococcus faecalis [40]
  Activity: 29.4%
Enterococcus faecium [41]
  MIC: > 500 µg/mL
  MIC90: > 500 µg/mL
Enterococcus faecalis [42]
  Activity: 70.6%

## CO/N=C(\C(=O)N[C@@H]1C(=O)N2C(C(=O)OC(C)OC(C)=O)=C(COC(N)=O)CS[C@H]12)c1ccco1 (stereo partly specified) [CEFUROXIME AXETIL]
Streptococcus pneumoniae [1]
  Activity: 100%
Streptococcus pneumoniae [2]
  MIC90: 4 µg/mL (≈ 7.84 µM)
Streptococcus pneumoniae [3]
  Activity: 0%
Streptococcus pneumoniae [4]
  Percent of isolates resistant: 99.3%
Streptococcus pneumoniae [5]
  Activity: 75.9%
Streptococcus pneumoniae [6]
  MIC: ≤ 0.12 µg/mL
  MIC90: ≤ 0.12 µg/mL
Streptococcus pneumoniae [7]
  MIC90: > 4 µg/mL
Streptococcus pneumoniae [8]
  Percent of isolates resistant: 0%
Streptococcus pneumoniae [9]
  Percent of isolates resistant: 20.4%
Streptococcus pneumoniae [10]
  Resistant isolates: 18.9%
Streptococcus pneumoniae [11]
  MIC90: 4 µg/mL (≈ 7.84 µM)
Streptococcus pneumoniae [12]
  Activity: 56%

## CC(=O)NC[C@H]1CN(c2ccc(N3CCOCC3)c(F)c2)C(=O)O1 [LINEZOLID]
Enterococcus faecium [13]
  Activity: 0%
Staphylococcus aureus [43]
  MIC90: 2 µg/mL (≈ 5.93 µM)
Enterococcus faecium [14]
  MIC90: 2 µg/mL (≈ 5.93 µM)
[44]
  MIC90: 1 µg/mL (≈ 2.96 µM)
[45]
  MIC90: 1 µg/mL (≈ 2.96 µM)
Enterococcus faecium [15]
  Activity: 99.5%
Staphylococcus aureus [46]
  Activity: 100%
Enterococcus faecium [16]
  MIC90: 2 µg/mL (≈ 5.93 µM)
Staphylococcus aureus [47]
  MIC90: 2 µg/mL (≈ 5.93 µM)
Enterococcus faecalis [17]
  Activity: 0.2%
[48]
  MIC90: 1 µg/mL (≈ 2.96 µM)
Enterococcus faecium [18]
  Activity: 0.4%
Enterococcus faecium [19]
  MIC90: 2 µg/mL (≈ 5.93 µM)
[49]
  MIC90: 1 µg/mL (≈ 2.96 µM)
Enterococcus faecalis [20]
  Activity: 1.5%
Enterococcus faecalis [21]
  Activity: 0.1%
[50]
  MIC90: 1 µg/mL (≈ 2.96 µM)
Enterococcus faecium [22]
  Activity: 99.1%
Enterococcus faecium [23]
  MIC90: 2 µg/mL (≈ 5.93 µM)
Enterococcus faecium [24]
  Activity: 93.1%
Enterococcus faecalis [25]
  Activity: 1.1%
[51]
  Activity: 99.7%
Enterococcus faecalis [26]
  Activity: 98.5%
[52]
  Activity: 99%
Enterococcus faecalis [27]
  MIC90: 2 µg/mL (≈ 5.93 µM)
Enterococcus faecalis [28]
  Activity: 98.9%
Staphylococcus aureus [53]
  MIC90: 2 µg/mL (≈ 5.93 µM)
Enterococcus faecalis [29]
  Activity: 99.8%
Enterococcus faecium [30]
  Activity: 99.3%
Enterococcus faecalis [31]
  MIC90: 2 µg/mL (≈ 5.93 µM)
[54]
  Activity: 99.3%
[55]
  Activity: 99.4%
[56]
  Activity: 100%
Enterococcus faecalis [32]
  MIC90: 2 µg/mL (≈ 5.93 µM)
[57]
  MIC90: 1 µg/mL (≈ 2.96 µM)
Enterococcus faecalis [33]
  Activity: 99.9%
Enterococcus faecium [34]
  Activity: 3.4%
Enterococcus faecium [35]
  Activity: 0.5%
Enterococcus faecium [36]
  Activity: 0.6%
Enterococcus faecium [37]
  Activity: 99.4%
Enterococcus faecalis [38]
  MIC90: 2 µg/mL (≈ 5.93 µM)
Enterococcus faecalis [39]
  MIC90: 2 µg/mL (≈ 5.93 µM)
Enterococcus faecalis [40]
  Activity: 100%
Staphylococcus aureus [58]
  Activity: 100%
Enterococcus faecium [41]
  MIC90: 2 µg/mL (≈ 5.93 µM)
Enterococcus faecalis [42]
  Activity: 0%
